Laboratory results taken from paper PMC10693084, “Novel 8-Methoxycoumarin-3-Carboxamides with potent anticancer activity against liver cancer via targeting caspase-3/7 and β-tubulin polymerization” (BMC Chemistry, 2023).

Experiments:
Format in all cases: cell-based
WI 38 normal cells = assay: MTT cytotoxicity assay against WI 38 normal cells; conditions: Homo sapiens, WI 38 normal lung cells, 24 h treatment
Method: (§1) Following the incubation period, the cells were subjected to various concentrations of the prepared molecules and subsequently incubated for a duration of 24 h. […] Subsequently, a volume of 100 μL of dimethyl sulfoxide (DMSO) was introduced into each well in order to facilitate the dissolution of the purple formazan that had been generated. The quantification of the color intensity of the formazan product, which serves as an indicator of the cellular growth condition, is performed by employing an ELISA plate reader set at a wavelength of 570 nm. The experimental conditions were implemented with a minimum of three replicates, and the experiments were conducted on at least three separate occasions.

[1] = test system: human liver carcinoma HepG2 cells; assay: MTT cytotoxicity assay against HepG2 cells; conditions: HepG2 cells
Method: To assess the antitumor properties of these compounds, we utilized the 3-(4,5-dimethylthiazol-2-yl)-2,5-diphenyl tetrazolium bromide (MTT) colorimetric assay, a widely used method to evaluate cell viability and cytotoxicity.
as §1

β-tubulin = biological target: T1, β-tubulin (Homo sapiens, UniProt P07437); assay: β-tubulin polymerization activity (TUB β ELISA, 450 nm) in HepG2 cells; conditions: HepG2, 0.9 µM, 24 h
T1 construct: impact of compound 5 on β-tubulin polymerization activity in HepG2 cells; endogenous in cells; host or cells: HepG2
Description: Microtubules are widely recognized as a significant target for anti-cancer therapy due to their pivotal involvement in cellular division and the preservation of cellular morphology. The impact of numerous anti-cancer agents is achieved through their ability to disrupt microtubule dynamics. This disruption ultimately results in the deregulation of mitotic spindles, leading to cell cycle arrest in cancer cells and subsequently inducing apoptosis. Toward this end, we further aimed to assess investigated the impact of compound 5 on β-tubulin polymerization activity in HepG2 cells. Thus, HepG2 cells were treated with compound 5 at (0.9 µM) for a duration of 24 h and the activity of β-tubulin polymerization was explored using spectrophotometry at 450 nm. […] These findings indicate that compound 5 interferes with the process of microtubule assembly, thereby disrupting the proper formation of mitotic spindles. […]
Dulbecco's Modified Eagle Medium (DMEM) (Invitrogen/Life Technologies) containing 10% fetal bovine serum (FBS) (Hyclone), 10 µg/mL of insulin (Sigma), and 1% penicillin–streptomycin was used for culturing the HepG2 cell line. […] This color change was then quantitatively measured using spectrophotometry at a specific wavelength of 450 nm ± 10 nm. […]

T1 sequence (P07437 whole entry): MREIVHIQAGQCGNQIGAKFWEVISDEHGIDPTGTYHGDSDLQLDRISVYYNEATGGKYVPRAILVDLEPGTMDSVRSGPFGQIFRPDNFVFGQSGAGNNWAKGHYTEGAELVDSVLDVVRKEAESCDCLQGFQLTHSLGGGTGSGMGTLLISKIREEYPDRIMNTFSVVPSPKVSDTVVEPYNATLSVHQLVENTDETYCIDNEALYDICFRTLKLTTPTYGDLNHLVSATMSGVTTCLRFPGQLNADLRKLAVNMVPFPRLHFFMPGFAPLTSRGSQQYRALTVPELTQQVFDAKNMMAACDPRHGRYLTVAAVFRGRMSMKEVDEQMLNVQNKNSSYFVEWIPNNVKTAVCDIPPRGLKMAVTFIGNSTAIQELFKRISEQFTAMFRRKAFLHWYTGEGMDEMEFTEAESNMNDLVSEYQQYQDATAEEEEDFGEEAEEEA
T1 sequence (P68363 whole entry partner): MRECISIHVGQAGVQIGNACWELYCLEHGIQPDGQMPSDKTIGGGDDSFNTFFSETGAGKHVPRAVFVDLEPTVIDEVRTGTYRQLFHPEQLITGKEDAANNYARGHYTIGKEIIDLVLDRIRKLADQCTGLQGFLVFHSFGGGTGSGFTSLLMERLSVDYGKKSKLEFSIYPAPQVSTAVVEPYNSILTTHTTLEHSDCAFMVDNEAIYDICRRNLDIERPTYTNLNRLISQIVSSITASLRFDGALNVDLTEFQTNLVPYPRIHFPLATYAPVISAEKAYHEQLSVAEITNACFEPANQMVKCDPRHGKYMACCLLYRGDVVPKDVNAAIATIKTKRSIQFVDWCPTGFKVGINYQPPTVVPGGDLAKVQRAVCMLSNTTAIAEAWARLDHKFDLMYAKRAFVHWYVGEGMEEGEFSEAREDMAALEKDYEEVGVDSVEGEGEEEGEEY

reduction in the concentration of β-tubulin polymerization vs untreated HepG2 cells (β-tubulin): threefold
Structure (SMILES): COc1ccc(Br)c2cc(C(N)=O)c(=O)oc12 [Compound 5, 5-Bromo-8-methoxycoumarin-3-carboxamide]
IC50 (WI 38 normal cells): 24.1 ± 1.46 µM
Structure–activity summary of cytotoxic activity (Fig. 4B) [1]: improved activity
IC50 ([1]; Homo sapiens, HepG2, 24 h, MTT, 24 h treatment): 0.9 ± 0.05 µM
